According to patent US8946397B1, “Tagged nucleosides that leave no scar upon cleavage” (priority 2011, dated 2015):
Like-named read-outs stand apart in the source and are kept apart here. Values belong to the molecule of their own block, whether it stands above or below them.

How the values were obtained:
[1] = cited from earlier work
[2] = tested on: DNA polymerases and reverse transcriptases; experiment: Standing start primer-extension assay; assay type: biochemical
Method: FIG. 8. […] Subsequent removal of the side chain allows primer extension to continue. […] Incubation is for 2 min with the template primer combination.
(§1) Thirteen DNA polymerases and reverse transcriptases performing well last time were tested again for their abilities to incorporate the triphosphate carrying a Bodipy 576/589 fluor (FIG. 6). The incubation time was extended to 30 min to see the boundaries for the enzymes to still consume all the primer s without leading to N+2 bands.
(§2) Gamma-^32P-labeled primer (2.5 pmol), cold primer (22.5 pmol) and template (30 pmol) were annealed by incubation at 95° C. for 5 min in various reaction buffer and slowly cooled to room temperature, followed by the addition of various DNA polymerase and reverse transcriptases. The extension was initiated by adding MJK's nucleoside triphosphates (MJ-008-065) (final concentration of 100 μM). After 30 min, the reaction was quenched by 10 mM EDTA in formamide loading buffer (20 μL); products were resolved by 14% PAGE.

Deep Vent (exo-) = Deep Vent (exo-) (Pyrococcus sp., UniProt Q51334, D141A/DEL493-1029/E143A); experiment: Standing start primer-extension assay; assay type: biochemical; conditions: 30 min incubation, triphosphate 100 μM, Template AA
Deep Vent (exo-), sequence (Q51334 other isoform, or with tags, fused parts or gaps D141A/E143A/DEL493-1029): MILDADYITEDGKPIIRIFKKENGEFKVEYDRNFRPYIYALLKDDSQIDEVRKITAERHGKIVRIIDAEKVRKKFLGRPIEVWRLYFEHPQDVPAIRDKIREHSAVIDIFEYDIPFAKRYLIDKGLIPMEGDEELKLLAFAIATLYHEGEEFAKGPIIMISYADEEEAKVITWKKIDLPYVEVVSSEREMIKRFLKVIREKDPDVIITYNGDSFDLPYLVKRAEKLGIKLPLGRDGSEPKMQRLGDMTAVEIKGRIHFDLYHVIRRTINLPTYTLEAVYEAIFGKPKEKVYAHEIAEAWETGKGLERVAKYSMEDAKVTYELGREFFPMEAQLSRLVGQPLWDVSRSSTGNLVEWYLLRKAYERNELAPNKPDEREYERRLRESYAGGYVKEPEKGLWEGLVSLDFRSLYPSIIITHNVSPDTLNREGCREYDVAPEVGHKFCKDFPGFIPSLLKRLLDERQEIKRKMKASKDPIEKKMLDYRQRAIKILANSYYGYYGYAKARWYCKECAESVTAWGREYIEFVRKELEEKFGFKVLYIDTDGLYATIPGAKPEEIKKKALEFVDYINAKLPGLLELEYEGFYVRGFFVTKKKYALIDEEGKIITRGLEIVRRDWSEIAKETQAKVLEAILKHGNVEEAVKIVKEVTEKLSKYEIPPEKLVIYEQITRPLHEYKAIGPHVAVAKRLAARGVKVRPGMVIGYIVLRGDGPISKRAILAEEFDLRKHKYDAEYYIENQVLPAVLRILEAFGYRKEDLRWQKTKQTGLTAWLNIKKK
Method: as §1, §2

Bst DNA polymerases = molecular target: T1, Bst DNA polymerases (Geobacillus stearothermophilus, UniProt P52026); experiment: Standing start primer-extension assay; assay type: biochemical; conditions: 30 min incubation, triphosphate 100 μM, Template AA
T1 sequence (P52026 1-876): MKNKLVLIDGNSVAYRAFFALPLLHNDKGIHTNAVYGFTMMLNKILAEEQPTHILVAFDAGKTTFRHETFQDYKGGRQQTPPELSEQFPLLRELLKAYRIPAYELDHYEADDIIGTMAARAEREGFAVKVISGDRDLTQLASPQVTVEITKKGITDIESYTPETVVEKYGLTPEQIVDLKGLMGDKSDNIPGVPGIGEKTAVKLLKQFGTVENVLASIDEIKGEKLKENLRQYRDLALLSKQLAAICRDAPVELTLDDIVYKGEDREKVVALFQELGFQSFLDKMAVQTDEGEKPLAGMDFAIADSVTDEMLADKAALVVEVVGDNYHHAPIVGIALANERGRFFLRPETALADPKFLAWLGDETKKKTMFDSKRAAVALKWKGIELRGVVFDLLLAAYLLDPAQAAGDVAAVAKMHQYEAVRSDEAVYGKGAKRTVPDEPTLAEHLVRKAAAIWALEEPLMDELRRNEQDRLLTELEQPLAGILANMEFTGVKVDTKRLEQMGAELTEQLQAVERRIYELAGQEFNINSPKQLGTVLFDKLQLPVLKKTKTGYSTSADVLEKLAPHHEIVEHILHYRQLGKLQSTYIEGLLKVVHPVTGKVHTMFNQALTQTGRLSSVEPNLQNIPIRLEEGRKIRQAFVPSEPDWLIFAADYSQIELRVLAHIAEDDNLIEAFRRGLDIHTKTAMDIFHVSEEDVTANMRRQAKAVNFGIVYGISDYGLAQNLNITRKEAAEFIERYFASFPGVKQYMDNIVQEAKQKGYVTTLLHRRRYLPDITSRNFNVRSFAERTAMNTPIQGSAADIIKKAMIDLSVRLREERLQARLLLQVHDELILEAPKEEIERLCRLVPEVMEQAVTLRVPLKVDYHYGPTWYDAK
Method: as §1, §2

[3] = Elimination of scar from triphosphate-aldehyde, analyzed by ion-exchange HPLC; assay type: physicochemical; conditions: 55° C.
Method: To develop the reagents for elimination of scar triphosphate-aldehyde which was obtained from the treatment of compound 17 with 10 mM NaIO4 was used as model compound. A variety of conditions were explored that might eliminate the scar and the reaction was analyzed by ion-exchange HPLC (buffer A: water; buffer B: 1M NH4HCO3; gradient 0˜35% B over 20 min).

Molecule: Nc1ncnc2c([C@@H]3O[C@H](CO)[C@@H](O)[C@H]3O)[nH]nc12 [formycin A]
pKa ([1]; deprotonation of N7): 9.6

Molecule: Nc1ncc([C@@H]2O[C@H](CO)[C@@H](O)[C@H]2O)c(=O)[nH]1 [pseudoisocytidine]
pKa ([1]; deprotonation of N3): 9.0

Molecule: O=c1[nH]cc([C@@H]2O[C@H](CO)[C@@H](O)[C@H]2O)c(=O)[nH]1 [pseudouridine]
pKa ([1]; cite of deprotonation unclear): 9.1

Molecule: BODIPY 576/589 Labeled 1-(5-amino-3,4-dihydroxypentyl)-2′-deoxy-pseudouridine-5′-triphosphate [Compound 18]
extension of a primer on a template calling for two consecutive T analogs ([2]; 2 min incubation, no 3′-ONH2 group (FIG. 8)): stops with certain of the indicated polymerases after the addition of one T analog
consume all the primer without leading to N+2 bands ([2]; thirteen enzymes, 30 min incubation, triphosphate 100 μM, Template AA): most of the polymerases and reverse transcriptases might achieve this goal
N+2 products (Deep Vent (exo-)): only trace amount
N+2 products (Bst DNA polymerases): only trace amount

Molecule: O=c1[nH]cnc2c([C@@H]3O[C@H](CO)[C@@H](O)[C@H]3O)n[nH]c12 [formycin B]
pKa ([1]; deprotonation of N7): 10.4

% Product ([3]; A: 100 mM glycine, pH 9.0, 10 min): 13%
% Product ([3]; A: 100 mM glycine, pH 9.0, 20 min): 20%
% Product ([3]; A: 100 mM glycine, pH 9.0, 30 min): 30%
% Product ([3]; A: 100 mM glycine, pH 10.0, 10 min): 35%
% Product ([3]; A: 100 mM glycine, pH 10.0, 20 min): 70%
% Product ([3]; A: 100 mM glycine, pH 10.0, 30 min): 87%
% Product ([3]; A: 100 mM glycine, pH 11.0, 10 min): 18%
% Product ([3]; A: 100 mM glycine, pH 11.0, 20 min): 52%
% Product ([3]; A: 100 mM glycine, pH 11.0, 30 min): 92%
% Product ([3]; B: 500 mM morpholine, pH 9.0, 10 min): 73%
% Product ([3]; B: 500 mM morpholine, pH 9.0, 20 min): 98%
% Product ([3]; B: 500 mM morpholine, pH 10.0, 10 min): 70%
% Product ([3]; B: 500 mM morpholine, pH 10.0, 20 min): 98%
% Product ([3]; B: 500 mM morpholine, pH 10.5, 10 min): 50%
% Product ([3]; B: 500 mM morpholine, pH 10.5, 20 min): 92%
% Product ([3]; B: 500 mM morpholine, pH 10.5, 30 min): 99%
% Product ([3]; B: 500 mM morpholine, pH 11.2, 10 min): 40%
% Product ([3]; B: 500 mM morpholine, pH 11.2, 20 min): 80%
% Product ([3]; B: 500 mM morpholine, pH 11.2, 30 min): 94%
% Product ([3]; C: 100 mM pyrrolidine, pH 9.0, 5 min): 32%
% Product ([3]; C: 100 mM pyrrolidine, pH 9.0, 10 min): 67%
% Product ([3]; C: 100 mM pyrrolidine, pH 10.0, 5 min): 90%
% Product ([3]; C: 100 mM pyrrolidine, pH 10.0, 10 min): 99%
% Product ([3]; C: 100 mM pyrrolidine, pH 11.0, 5 min): 99%
% Product ([3]; C: 100 mM pyrrolidine, pH 11.0, 10 min): 99%
Molecule: O=CCCn1cc([C@H]2C[C@H](O)[C@@H](COP(=O)(O)OP(=O)(O)OP(=O)(O)O)O2)c(=O)[nH]c1=O [triphosphate-aldehyde]
